The text below walks through data of the supplement of paper PMC10307832.

Holding throughout (experiment): relative viability (nuclei count vs DMSO), 5 days (fraction); higher = more cells survive
Compound in assay [1]: CC1=C(N=C(N=C1N)[C@H](CC(=O)N)NC[C@@H](C(=O)N)N)C(=O)N[C@@H]([C@H](C2=CN=CN2)OC3C(C(C(C(O3)CO)O)O)OC4C(C(C(C(O4)CO)O)OC(=O)N)O)C(=O)N[C@H](C)[C@H]([C@H](C)C(=O)N[C@@H]([C@@H](C)O)C(=O)NCCC5=NC(=CS5)C6=NC(=CS6)C(=O)NCCC[S+](C)C)O [Bleomycin] + Nc1ncn([C@H]2C[C@H](O)[C@@H](CO)O2)c(=O)n1 [Decitabine] (partner 2 µM)
The following applies: main component drawn. Summed up: (§1)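 Relative viability equals treated-well nuclei counts divided by vehicle-well nuclei counts. Counts came from 4× images of lung cancer cell lines grown in 1536-well plates for 5 days after pin-tool dosing on the day after seeding. Dosing used one drug alone or a fixed anchor-drug dose plus five library-drug doses (not always all listed) in √10 steps, and values are medians of duplicate plates.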

Compound in assay [2]: CC1=C(N=C(N=C1N)[C@H](CC(=O)N)NC[C@@H](C(=O)N)N)C(=O)N[C@@H]([C@H](C2=CN=CN2)OC3C(C(C(C(O3)CO)O)O)OC4C(C(C(C(O4)CO)O)OC(=O)N)O)C(=O)N[C@H](C)[C@H]([C@H](C)C(=O)N[C@@H]([C@@H](C)O)C(=O)NCCC5=NC(=CS5)C6=NC(=CS6)C(=O)NCCC[S+](C)C)O [Bleomycin] + Cc1nc(NC(=O)N2CCC[C@H]2C(N)=O)sc1-c1ccnc(C(C)(C)C(F)(F)F)c1 [Alpelisib] (partner 2 µM)
The following applies: main component drawn. Summed up: as §1

Compound in assay [3]: CC1=C(N=C(N=C1N)[C@H](CC(=O)N)NC[C@@H](C(=O)N)N)C(=O)N[C@@H]([C@H](C2=CN=CN2)OC3C(C(C(C(O3)CO)O)O)OC4C(C(C(C(O4)CO)O)OC(=O)N)O)C(=O)N[C@H](C)[C@H]([C@H](C)C(=O)N[C@@H]([C@@H](C)O)C(=O)NCCC5=NC(=CS5)C6=NC(=CS6)C(=O)NCCC[S+](C)C)O [Bleomycin] + O=C(CCCCCCC(=O)Nc1ccccc1)NO [Vorinostat] (partner 1 µM)
The following applies: main component drawn. Summed up: as §1

Compound in assay [4]: COc1cc([C@@H]2c3cc4c(cc3[C@@H](O[C@@H]3O[C@@H]5CO[C@@H](C)O[C@H]5[C@H](O)[C@H]3O)[C@H]3COC(=O)[C@H]23)OCO4)cc(OC)c1O [Etoposide] + CS(=O)(=O)CCNCc1ccc(-c2ccc3ncnc(Nc4ccc(OCc5cccc(F)c5)c(Cl)c4)c3c2)o1 [Lapatinib] (partner 2 µM)
Summed up: as §1

Consider UMC-11, for which the relative viability in assay [1] (first compound 0.01 µM) was found to be 0.493; in assay [1] (first compound 0.03162 µM), 0.509; in assay [1] (first compound 0.1 µM) it was 0.473; in assay [1] (first compound 0.3162 µM) it was 0.528; in assay [1] (first compound 1 µM) it was 0.404; in assay [2] (first compound 0.01 µM) it was 0.873. In addition, the relative viability in assay [2] (first compound 0.03162 µM) was found to be 0.935; in assay [2] (first compound 0.1 µM) it was 0.826; in assay [2] (first compound 0.3162 µM), 0.598; in assay [2] (first compound 1 µM) it was 0.44; in assay [3] (first compound 0.01 µM) it was 0.364; in assay [3] (first compound 0.03162 µM), 0.346. Besides, the relative viability in assay [3] (first compound 0.1 µM) came out at 0.311; in assay [3] (first compound 0.3162 µM) it was 0.278; in assay [3] (first compound 1 µM) it was 0.232; in assay [4] (first compound 0.01 µM), 0.973; in assay [4] (first compound 0.03162 µM), 1.05; in assay [4] (first compound 0.1 µM), 0.407. Further, the relative viability in assay [4] (first compound 0.3162 µM) was found to be 0.46; in assay [4] (first compound 1 µM), 0.239.
